Here are results for two compounds from article PMC12238850, “Molecular determinants for recognition of serotonylated chromatin” (Nucleic Acids Research, 2025).

Common to all, as to assay type: binding
Assay [1] deals with T1, TAF3 W894I (GST-tagged PHD) (Mus musculus, UniProt Q5HZG4, W894I).
T1 construct: Mus musculus Taf3-PHD domain (residues 857–924); made in house; host or cells: E. coli BL21(DE3)
T1 sequence (Q5HZG4 857-924 W894I): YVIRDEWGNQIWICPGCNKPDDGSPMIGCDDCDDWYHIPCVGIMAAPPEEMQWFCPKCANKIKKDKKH
Kind of assay: ITC of GST-tagged Taf3-PHD W894I. From the text:
(§1) The coding sequences of Mus musculus Taf3-PHD domain (residues 857–924) and Homosapiens PHF2 (1–66), PHF8 (37–102), and BPTF(2) (2865–2921) were cloned into the pGEX2T-derived vector, pRP265NB, for bacterial expression of GST-tagged proteins. Note that the PHD fingers of M. musculus Taf3 and H. sapiens TAF3 differ in a single amino acid. A901 in mouse corresponds to T899 in human. Here, amino acid numbering corresponds to mouse Taf3 isoform 1 with UniProt ID: Q5HZG4, accessible at https://www.uniprot.org/uniprotkb/Q5HZG4/entry. Single or double mutations were introduced by mutagenesis polymerase chain reaction and validated by Sanger sequencing. A single colony of freshly transformed BL21(DE3) Escherichia coli bacteria with the corresponding construct was grown in Luria broth (LB) medium supplemented with 50 μg/ml ampicillin until an OD600 of 0.7. […]
(§2) ITC experiments were performed at 20°C with a MicroCal VP-ITC microcalorimeter (Malvern) by sequential injection of 10 μl at 300 μM histone peptide during 20 s into the sample cell containing 30 or 15 μM of GST-Taf3 (wild type or mutant) or GST-BPTF, GST-PHF2, and GST-PHF8 PHDs in ITC buffer (100 mM NaCl, 20 mM Tris–HCl, pH 7.5). […] ITC data were subsequently analysed and fitted with the one-site binding model in the MicroCal ITC Origin Analysis software 7.0 (Table 1, Figs 3B and 5A, Supplementary Table S3, and Supplementary Fig. S10). […]

Assay [2] concerns the target T2, BPTF(2) PHD (2865–2921, GST-tagged) (Homo sapiens, UniProt Q12830).
T2 construct: BPTF(2) (2865–2921); made in house; host or cells: E. coli BL21(DE3)
The assay is described as follows: ITC of GST-tagged BPTF(2) PHD.
Source text: as §1, §2

Assay [3] has as its target T3, PHF2 PHD (1–66, GST-tagged) (Homo sapiens, UniProt O75151).
T3 construct: PHF2 (1–66); made in house; host or cells: E. coli BL21(DE3)
T3 sequence (O75151 1-66): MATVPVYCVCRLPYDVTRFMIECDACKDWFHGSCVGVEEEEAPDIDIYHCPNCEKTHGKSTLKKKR
The assay is described as follows: ITC of GST-tagged PHF2 PHD.
Source text: as §1, §2

[4] abbreviates: ITC, 20°C, 100 mM NaCl, 20 mM Tris–HCl, pH 7.5, one-site model, ± = standard error of fit, read-out: K D.

Read-outs that look alike come from different tables or passages of the source.

With `C[C@H](N)C(=O)N[C@@H](CCCNC(=N)N)C(=O)N[C@H](C(=O)N[C@@H](CCCC[N+](C)(C)C)C(=O)N[C@@H](CCC(=O)NCCc1c[nH]c2ccc(O)cc12)C(=O)N[C@H](C(=O)N[C@@H](C)C(=O)N[C@@H](CCCNC(=N)N)C(=O)N[C@@H](CCCCN)C(=O)N[C@@H](CO)C(=O)N[C@H](C(=O)NCC(N)=O)[C@@H](C)O)[C@@H](C)O)[C@@H](C)O` [H3K4me3Q5ser], the Kd in assay [1] amounted to 106 ± 8 nM; in assay [2], 1240 ± 50 nM; in assay [3], 201 ± 22 nM.

With `C[C@H](N)C(=O)N[C@@H](CCCNC(=N)N)C(=O)N[C@H](C(=O)N[C@@H](CCCC[N+](C)(C)C)C(=O)N[C@@H](CCC(N)=O)C(=O)N[C@H](C(=O)N[C@@H](C)C(=O)N[C@@H](CCCNC(=N)N)C(=O)N[C@@H](CCCCN)C(=O)N[C@@H](CO)C(=O)N[C@H](C(=O)NCC(N)=O)[C@@H](C)O)[C@@H](C)O)[C@@H](C)O` [H3K4me3], the Kd came out at 279 ± 17 nM in assay [1] (setting [4]), 1300 ± 49 nM in assay [2] (setting [4]) and 286 ± 23 nM in assay [3] (setting [4]).
